From ChEMBL document CHEMBL2331103, “Synthesis of a novel series of 2-alkylthio substituted naphthoquinones as potent acyl-CoA: cholesterol acyltransferase (ACAT) inhibitors” (Eur J Med Chem, 2013)

molecular target: T1, Sterol O-acyltransferase 1 (Homo sapiens, UniProt P35610); assay: Inhibition of human macrophage ACAT expressed in human HepG2 cells using [14C]oleoyl-CoA as substrate incubated for 20 mins prior to substrate addition measured after 25 mins by liquid scintillation counting analysis; format: cell-based
T1 sequence (P35610 whole entry): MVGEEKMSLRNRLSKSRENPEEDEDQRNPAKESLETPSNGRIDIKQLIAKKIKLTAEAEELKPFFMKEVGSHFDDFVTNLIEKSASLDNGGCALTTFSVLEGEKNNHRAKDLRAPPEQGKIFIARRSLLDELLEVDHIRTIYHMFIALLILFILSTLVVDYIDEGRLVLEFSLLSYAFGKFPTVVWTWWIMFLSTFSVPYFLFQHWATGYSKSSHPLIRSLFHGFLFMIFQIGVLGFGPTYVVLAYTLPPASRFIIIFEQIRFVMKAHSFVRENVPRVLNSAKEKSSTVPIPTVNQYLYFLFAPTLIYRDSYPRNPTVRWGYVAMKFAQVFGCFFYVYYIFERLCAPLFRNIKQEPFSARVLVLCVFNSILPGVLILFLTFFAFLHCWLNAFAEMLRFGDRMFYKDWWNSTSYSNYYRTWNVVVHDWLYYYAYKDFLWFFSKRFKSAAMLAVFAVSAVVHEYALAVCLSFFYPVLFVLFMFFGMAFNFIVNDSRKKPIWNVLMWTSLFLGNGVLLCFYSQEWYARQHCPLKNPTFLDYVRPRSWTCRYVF

IC50 [µM]	Compound
8.67	CCCCCCCCCCCSC1=CC(=O)c2ccccc2C1=O
56.6	CCCCCCCCCCCCCCC[S+]([O-])C1=CC(=O)c2ccccc2C1=O (stereo not given)
> 100	CCS(=O)(=O)C1=CC(=O)c2c(OC)ccc(OC)c2C1=O
> 100	CCCS(=O)(=O)C1=CC(=O)c2c(OC)ccc(OC)c2C1=O
3.4	CCCCCCCCCCCS(=O)(=O)C1=CC(=O)c2c(OC)ccc(OC)c2C1=O
5.8	CCCCCCCCCCCCCCCS(=O)(=O)C1=CC(=O)c2c(OC)ccc(OC)c2C1=O
2.82	CSC1=CC(=O)c2ccccc2C1=O
5.08	CCCSC1=CC(=O)c2ccccc2C1=O
7.87	CCCCSC1=CC(=O)c2ccccc2C1=O
8.19	CCCCCSC1=CC(=O)c2ccccc2C1=O
6	CCCCCCCCSC1=CC(=O)c2ccccc2C1=O
1.63	CCCCCCCCCSC1=CC(=O)c2ccccc2C1=O
1.66	CCCCCCCCCCCCSC1=CC(=O)c2ccccc2C1=O
4.13	CCCCCCCCCCCCCCCSC1=CC(=O)c2ccccc2C1=O
1.45	CCCCCCCCCCCCCCCCCCSC1=CC(=O)c2ccccc2C1=O
5.66	C[S+]([O-])C1=CC(=O)c2ccccc2C1=O (stereo not given)
5.47	CCCCCCCCC[S+]([O-])C1=CC(=O)c2ccccc2C1=O (stereo not given)
> 100	COc1ccc(OC)c2c1C(=O)C=C([S+](C)[O-])C2=O (stereo not given)
8.4	CCCCCCCCCC[S+]([O-])C1=CC(=O)c2c(OC)ccc(OC)c2C1=O (stereo not given)
1.1	CCCCCCCCCCC[S+]([O-])C1=CC(=O)c2c(OC)ccc(OC)c2C1=O (stereo not given)
2.4	CCCCCCCCCCCC[S+]([O-])C1=CC(=O)c2c(OC)ccc(OC)c2C1=O (stereo not given)
> 100	CCCCCCCCCCCCCCCCCC[S+]([O-])C1=CC(=O)c2c(OC)ccc(OC)c2C1=O (stereo not given)
> 100	COc1ccc(OC)c2c1C(=O)C=C(S(C)(=O)=O)C2=O
7.51	CCSC1=CC(=O)c2ccccc2C1=O
3.7	CC(C)CNC(=O)/C=C/C=C/CCCC/C=C/c1ccc2c(c1)OCO2 [RETROFRACTAMIDE B]
